Test results: US12351564B2, “NLRP3 modulators” (Zomagen Biosciences Ltd, priority 2019, dated 2025)

Test system: IL-1b
Test: Mouse BMDM IL-1b Assay
Assay type: cell-based
Details: Macrophage; C57BL6 bone marrow derived macrophages; 200 ng/mL Ultrapure LPS-B5 3 hours, compound 30 minutes, 5 mM ATP 45 minutes; mouse IL-1b ELISA of supernatant
Description: Example 8: Mouse BMDM IL-1b Assay
Mouse bone marrow cells from C57BL6 tibia and femur were culture in complete Isocov's Media supplemented with 20 ng/mL MCSF (BMDM media) at a density of 50 million cells/15 cm Petri dish. Fresh media was changed every 3 days, and bone marrow derived macrophages were collected, washed, and counted on day 7. Cells were seeded into 96 well plates at a density of 5×10^4 cells per well in 100 uL of BMDM media and cultured overnight. The cells were stimulated at 37° C. with 200 ng/mL Ultrapure LPS-B5 for 3 hours before pre-diluted compounds were added. 30 minutes after compound addition, 5 mM ATP was added for the secondary stimulation for 45 minutes. After stimulation, the plates were briefly spun down, and 50 uL of supernatant was harvested from each well. ELISA for mouse IL-1b was performed with 1:10 and 1:100 diluted supernatant using pre-coated kits. IL-1b concentrations were calculated based on pre-titrated standards, and compound inhibition IC50 is generated using the Levenberg Marquardt damped lease-square method.

Row | Compound | IC50 [nM]
1 | O=C(Nc1c2c(cc3c1CCC3)CCC2)NS(=O)(=O)c1cc2c(o1)C1CCC(C1)C2=O (stereo not drawn) [Compound 7, N-((1,2,3,5,6,7-hexahydro-s-indacen-4-yl)carbamoyl)-4-oxo-5,6,7,8-tetrahydro-4H-5,8-methanocyclohepta[b]furan-2-sulfonamide] | < 100
2 | O=C(Nc1c2c(cc3c1CCC3)CCC2)NS(=O)(=O)c1ccc2c(c1)C(=O)C1CCC2CC1 [Compound 32, N-((1,2,3,5,6,7-hexahydro-s-indacen-4-yl)carbamoyl)-9-oxo-6,7,8,9-tetrahydro-5H-5,8-ethanobenzo[7]annulene-2-sulfonamide] | < 100
3 | C[C@]1(O)c2cc(S(=O)(=O)NC(=O)Nc3c4c(cc5c3CCC5)CCC4)oc2[C@@H]2CC[C@H]1C2 [Compound 42, (4R,5S,8R)-N-((1,2,3,5,6,7-hexahydro-s-indacen-4-yl)carbamoyl)-4-hydroxy-4-methyl-5,6,7,8-tetrahydro-4H-5,8-methanocyclohepta[b]furan-2-sulfonamide] | < 100
4 | CC1(O)c2cc(S(=O)(=O)NC(=O)Nc3c4c(c(Br)c5c3CCC5)CCC4)oc2C2CCC1C2 (stereo not drawn) [Compound 18, N-((8-bromo-1,2,3,5,6,7-hexahydro-s-indacen-4-yl)carbamoyl)-4-hydroxy-4-methyl-5,6,7,8-tetrahydro-4H-5,8-methanocyclohepta[b]furan-2-sulfonamide] | < 100
5 | O=C(Nc1c2c(cc3c1CCC3)CCC2)NS(=O)(=O)c1cc2c(o1)[C@@H]1CC[C@@H](C1)C2O (stereo partly drawn) [Compound 50, (5S,8R)-N-((1,2,3,5,6,7-hexahydro-s-indacen-4-yl)carbamoyl)-4-hydroxy-5,6,7,8-tetrahydro-4H-5,8-methanocyclohepta[b]furan-2-sulfonamide] | < 100
6 | CC(C)c1cccc(C(C)C)c1CC(=O)NS(=O)(=O)c1cc2c(o1)C1CCC(CC1)C2(C)O (stereo not drawn) [Compound 38, 2-(2,6-diisopropylphenyl)-N-((4-hydroxy-4-methyl-5,6,7,8-tetrahydro-4H-5,8-ethanocyclohepta[b]furan-2-yl)sulfonyl)acetamide] | 100 to 1000
7 | CC1(O)c2cc(S(=O)(=O)NC(=O)Nc3c4c(cc5c3CCC5)CCC4)oc2C2CCC1CC2 (stereo not drawn) [Compound 21, N-((1,2,3,5,6,7-hexahydro-s-indacen-4-yl)carbamoyl)-4-hydroxy-4-methyl-5,6,7,8-tetrahydro-4H-5,8-ethanocyclohepta[b]furan-2-sulfonamide] | < 100
8 | CC1(O)c2cc(S(=O)(=O)NC(=O)Nc3c4c(c(F)c5c3CCC5)CCC4)oc2C2CCC1C2 (stereo not drawn) [Compound 30, N-((8-fluoro-1,2,3,5,6,7-hexahydro-s-indacen-4-yl)carbamoyl)-4-hydroxy-4-methyl-5,6,7,8-tetrahydro-4H-5,8-methanocyclohepta[b]furan-2-sulfonamide] | < 100
9 | O=C(Nc1c2c(cc3c1CCC3)CCC2)NS(=O)(=O)c1cc2c(o1)[C@H]1CC[C@H](C1)C2O (stereo partly drawn) [Compound 49, (5R,8S)-N-((1,2,3,5,6,7-hexahydro-s-indacen-4-yl)carbamoyl)-4-hydroxy-5,6,7,8-tetrahydro-4H-5,8-methanocyclohepta[b]furan-2-sulfonamide] | 100 to 1000
10 | O=C(Nc1c2c(cc3c1CCC3)CCC2)NS(=O)(=O)c1cc2c(o1)C1CCC(CC1)C2CO (stereo not drawn) [Compound 46, N-((1,2,3,5,6,7-hexahydro-s-indacen-4-yl)carbamoyl)-4-(hydroxymethyl)-5,6,7,8-tetrahydro-4H-5,8-ethanocyclohepta[b]furan-2-sulfonamide] | < 100
11 | CC1(O)c2cc(S(=O)(=O)NC(=O)Nc3c4c(c(Cl)c5c3CCC5)CCC4)oc2C2CCC1C2 (stereo not drawn) [Compound 20, N-((8-chloro-1,2,3,5,6,7-hexahydro-s-indacen-4-yl)carbamoyl)-4-hydroxy-4-methyl-5,6,7,8-tetrahydro-4H-5,8-methanocyclohepta[b]furan-2-sulfonamide] | < 100
12 | O=C(Nc1c2c(cc3c1CCC3)CCC2)NS(=O)(=O)c1cc2c(s1)C1CCC(C1)C2O (stereo not drawn) [Compound 48, N-((1,2,3,5,6,7-hexahydro-s-indacen-4-yl)carbamoyl)-4-hydroxy-5,6,7,8-tetrahydro-4H-5,8-methanocyclohepta[b]thiophene-2-sulfonamide] | < 100
13 | CC(C)c1cccc(C(C)C)c1CC(=O)NS(=O)(=O)c1cc2c(o1)C1CCC(C1)C2=O (stereo not drawn) [Compound 14, 2-(2,6-diisopropylphenyl)-N-((4-oxo-5,6,7,8-tetrahydro-4H-5,8-methanocyclohepta[b]furan-2-yl)sulfonyl)acetamide] | 1000 to 10000
14 | CC(C)c1ccc(Cl)c(C(C)C)c1NC(=O)NS(=O)(=O)c1cc2c(o1)C1CCC(C1)C2O (stereo not drawn) [Compound 25, N-((3-chloro-2,6-diisopropylphenyl)carbamoyl)-4-hydroxy-5,6,7,8-tetrahydro-4H-5,8-methanocyclohepta[b]furan-2-sulfonamide] | 100 to 1000
15 | CC1(O)c2cc(S(=O)(=O)NC(=O)Nc3c4c(cc5c3CCC5)CCC4)ccc2C2CCC1CC2 (stereo not drawn) [Compound 34, N-((1,2,3,5,6,7-hexahydro-s-indacen-4-yl)carbamoyl)-9-hydroxy-9-methyl-6,7,8,9-tetrahydro-5H-5,8-ethanobenzo[7]annulene-2-sulfonamide] | 100 to 1000
16 | C[C@]1(O)c2cc(S(=O)(=O)NC(=O)Nc3c4c(cc5c3CCC5)CCC4)oc2C2CCC1CC2 [Compound 44, (R)-N-((1,2,3,5,6,7-hexahydro-s-indacen-4-yl)carbamoyl)-4-hydroxy-4-methyl-5,6,7,8-tetrahydro-4H-5,8-ethanocyclohepta[b]furan-2-sulfonamide] | < 100
17 | C[C@@]1(O)c2cc(S(=O)(=O)NC(=O)Nc3c4c(cc5c3CCC5)CCC4)oc2[C@H]2CC[C@@H]1C2 [Compound 39, (4S,5R,8S)-N-((1,2,3,5,6,7-hexahydro-s-indacen-4-yl)carbamoyl)-4-hydroxy-4-methyl-5,6,7,8-tetrahydro-4H-5,8-methanocyclohepta[b]furan-2-sulfonamide] | 100 to 1000
18 | CC(C)c1cc(Cl)cc(C(C)C)c1NC(=O)NS(=O)(=O)c1cc2c(o1)C1CCC(C1)C2(C)O (stereo not drawn) [Compound 29, N-((4-chloro-2,6-diisopropylphenyl)carbamoyl)-4-hydroxy-4-methyl-5,6,7,8-tetrahydro-4H-5,8-methanocyclohepta[b]furan-2-sulfonamide] | 100 to 1000
19 | O=C(Nc1c2c(c(Cl)c3c1CCC3)CCC2)NS(=O)(=O)c1cc2c(o1)C1CCC(C1)C2O (stereo not drawn) [Compound 19, N-((8-chloro-1,2,3,5,6,7-hexahydro-s-indacen-4-yl)carbamoyl)-4-hydroxy-5,6,7,8-tetrahydro-4H-5,8-methanocyclohepta[b]furan-2-sulfonamide] | < 100
20 | CC1(O)c2cc(S(=O)(=O)NC(=O)Nc3c4c(cc5c3CCC5)CCC4)sc2C2CCC1CC2 (stereo not drawn) [Compound 45, N-((1,2,3,5,6,7-hexahydro-s-indacen-4-yl)carbamoyl)-4-hydroxy-4-methyl-5,6,7,8-tetrahydro-4H-5,8-ethanocyclohepta[b]thiophene-2-sulfonamide] | < 100
21 | CC1(O)c2cc(S(=O)(=O)NC(=O)Nc3c4c(cc5c3CCC5)CCC4)sc2C2CCC1C2 (stereo not drawn) [Compound 47, N-((1,2,3,5,6,7-hexahydro-s-indacen-4-yl)carbamoyl)-4-hydroxy-4-methyl-5,6,7,8-tetrahydro-4H-5,8-methanocyclohepta[b]thiophene-2-sulfonamide] | < 100
22 | O=C(Nc1c2c(c(Br)c3c1CCC3)CCC2)NS(=O)(=O)c1cc2c(o1)C1CCC(C1)C2O (stereo not drawn) [Compound 17, N-((8-bromo-1,2,3,5,6,7-hexahydro-s-indacen-4-yl)carbamoyl)-4-hydroxy-5,6,7,8-tetrahydro-4H-5,8-methanocyclohepta[b]furan-2-sulfonamide] | 100 to 1000
23 | CC(C)c1cccc(C(C)C)c1CC(=O)NS(=O)(=O)c1cc2c(o1)C1CCC(C1)C2(C)O (stereo not drawn) [Compound 16, 2-(2,6-diisopropylphenyl)-N-((4-hydroxy-4-methyl-5,6,7,8-tetrahydro-4H-5,8-methanocyclohepta[b]furan-2-yl)sulfonyl)acetamide] | 100 to 1000
24 | CC(C)c1ccc(F)c(C(C)C)c1NC(=O)NS(=O)(=O)c1cc2c(o1)C1CCC(C1)C2O (stereo not drawn) [Compound 37, N-((3-fluoro-2,6-diisopropylphenyl)carbamoyl)-4-hydroxy-5,6,7,8-tetrahydro-4H-5,8-methanocyclohepta[b]furan-2-sulfonamide] | 100 to 1000
25 | C[C@@]1(O)c2cc(S(=O)(=O)NC(=O)Nc3c4c(cc5c3CCC5)CCC4)oc2C2CCC1CC2 [Compound 43, (S)-N-((1,2,3,5,6,7-hexahydro-s-indacen-4-yl)carbamoyl)-4-hydroxy-4-methyl-5,6,7,8-tetrahydro-4H-5,8-ethanocyclohepta[b]furan-2-sulfonamide] | < 100
26 | O=C(Nc1c2c(cc3c1CCC3)CCC2)NS(=O)(=O)c1cc2c(o1)C1CCC(C1)C2=NO (stereo not drawn) [Compound 11, N-((1,2,3,5,6,7-hexahydro-s-indacen-4-yl)carbamoyl)-4-(hydroxyimino)-5,6,7,8-tetrahydro-4H-5,8-methanocyclohepta[b]furan-2-sulfonamide] | < 100
27 | C[C@@]1(O)c2cc(S(=O)(=O)NC(=O)Nc3c4c(cc5c3CCC5)CCC4)oc2[C@@H]2CC[C@H]1C2 [Compound 41, (4S,5S,8R)-N-((1,2,3,5,6,7-hexahydro-s-indacen-4-yl)carbamoyl)-4-hydroxy-4-methyl-5,6,7,8-tetrahydro-4H-5,8-methanocyclohepta[b]furan-2-sulfonamide] | < 100
